Results published in ChEMBL document CHEMBL1145870, “Triethylene tetraamine: a novel telomerase inhibitor” (Bioorg Med Chem Lett, 2003).
Values joined by “and” are separate entries in the source; they are usually repeats but may differ in a detail not shown here. Equal entries are not always repeated.

Tests used:
HeLa = test: Inhibitory activity against HeLa cell line using 3-(4,5-dimethylthiazol-2-yl)-2,5-diphenyltetrazolium bromide (MTT, Sigma) assay.
[1] = Dose required to inhibit HLF cells by 50 percent; settings: Homo sapiens, read-out: LD50

## NCCNCCNCCN [TRIENTINE]
HeLa
  IC50: 74.8 µM and 7.8 µM
[1]
  CC50: 3100 µM
